In one assay the target is T1, DNA gyrase from E. coli (Escherichia coli, UniProt P0AES4+P0AES6).
T1 construct: purchased Inspiralis
The assay is described as follows: Inhibitory activity on E. coli DNA gyrase (Inspiralis assay). In kind it is biochemical. As for the experimental part:
Inhibitory potencies were investigated utilizing the Inspiralis assay on streptavidin-coated 96-well microtiter plates. First, the plates were rehydrated with buffer (20 mM Tris-HCl with pH 7.6, 0.01% w/v BSA, 0.05% v/v Tween 20, 137 mM NaCl) and the biotinylated oligonucleotide was then immobilized. After washing off the unbound oligonucleotide, the enzyme test was performed. […] Reaction solutions were incubated at 37° C. for 30 min. After that, the TF buffer (50 mM NaOAc with pH 5.0, 50 mM NaCl and 50 mM MgCl2) was added to terminate the enzymatic reaction. After additional incubation for 30 min at rt, during which biotinoligonucleotide-plasmid triplex was formed, the unbound plasmid was washed off using TF buffer and SybrGOLD in T10 buffer (10 mM Tris HCl with pH 8.0 and 1 mM EDTA) was added. […] Initial screening was done at 100 or 10 μM concentration of inhibitors. […] GraphPad Prism software was used to calculate the IC50 values. The result is given as the average value of three independent measurements.

In assay [1] the test system is Staphylococcus epidermidis. Kind of assay: In vitro antibacterial activity (CLSI M07-A10 dilution MIC). In kind it is cell-based. An excerpt: (§1) Staphylococcus epidermidis, Bacillus subtilis, Enterococcus faecium, Enterococcus faecium resistant to VRE, and Gram-negative organisms including Klebsiella pneumonia, Escherichia coli, and Pseudomonas aeruginosa.
Assay [2] relates to Enterococcus faecium ATCC 51559 (VRE resistant). The description is as above. In kind it is cell-based.
From the text: as §1

For assay [3], the system named is Bacillus subtilis MTCC 441. Described as above. The conditions noted are these: MTCC441. Type of assay: cell-based.
From the text: as §1

Assay [4] concerns Staphylococcus aureus ATCC 29213. The description is as above. Type of assay: cell-based. The conditions noted are these: ATCC29213.
From the text: as §1

Assay [5] relates to Enterococcus faecium ATCC 35667. The assay is described as above. Type of assay: cell-based. The conditions noted are these: ATCC35667.
From the text: as §1

In assay [6] the test system is Staphylococcus aureus ATCC BAA-1556 (MERSA resistant). The description is as above. In kind it is cell-based. The conditions noted are these: ATCCBAA1556.
From the text: as §1

In assay [7] the test system is Escherichia coli MTCC 443. The description is as above. Type of assay: cell-based.
From the text: as §1

The subject of assay [8] is Klebsiella pneumonia MTCC 618. Described as above. Type of assay: cell-based. The conditions noted are these: Klebsiella pneumoniae, MTCC618.
From the text: as §1

The test system of assay [9] is Pseudomonas aeruginosa MTCC 741. Described as above. In kind it is cell-based. The conditions noted are these: MTCC741.
From the text: as §1

In assay [10] the test system is Mycobacterium tuberculosis H37Rv strain. The assay is described as follows: Anti-tubercular alamar blue microplate MIC. The conditions noted are these: 168 h, M. tuberculosis H37Rv, seven days incubation, read-out: anti-mycobacterial activity (MIC). Type of assay: cell-based. A general note: The colour change of resazurin is a common sign of viable cells or microbes.

[11] abbreviates: Escherichia coli MTCC 443 + efflux pump inhibitor PAβN (200 μg/mL).

Structures are written as SMILES. In brackets after ≈: the same amount, converted by molar mass. Like-named read-outs stand apart in the source and are kept apart here.

T1 sequence (P0AES4 whole entry, one chain of several): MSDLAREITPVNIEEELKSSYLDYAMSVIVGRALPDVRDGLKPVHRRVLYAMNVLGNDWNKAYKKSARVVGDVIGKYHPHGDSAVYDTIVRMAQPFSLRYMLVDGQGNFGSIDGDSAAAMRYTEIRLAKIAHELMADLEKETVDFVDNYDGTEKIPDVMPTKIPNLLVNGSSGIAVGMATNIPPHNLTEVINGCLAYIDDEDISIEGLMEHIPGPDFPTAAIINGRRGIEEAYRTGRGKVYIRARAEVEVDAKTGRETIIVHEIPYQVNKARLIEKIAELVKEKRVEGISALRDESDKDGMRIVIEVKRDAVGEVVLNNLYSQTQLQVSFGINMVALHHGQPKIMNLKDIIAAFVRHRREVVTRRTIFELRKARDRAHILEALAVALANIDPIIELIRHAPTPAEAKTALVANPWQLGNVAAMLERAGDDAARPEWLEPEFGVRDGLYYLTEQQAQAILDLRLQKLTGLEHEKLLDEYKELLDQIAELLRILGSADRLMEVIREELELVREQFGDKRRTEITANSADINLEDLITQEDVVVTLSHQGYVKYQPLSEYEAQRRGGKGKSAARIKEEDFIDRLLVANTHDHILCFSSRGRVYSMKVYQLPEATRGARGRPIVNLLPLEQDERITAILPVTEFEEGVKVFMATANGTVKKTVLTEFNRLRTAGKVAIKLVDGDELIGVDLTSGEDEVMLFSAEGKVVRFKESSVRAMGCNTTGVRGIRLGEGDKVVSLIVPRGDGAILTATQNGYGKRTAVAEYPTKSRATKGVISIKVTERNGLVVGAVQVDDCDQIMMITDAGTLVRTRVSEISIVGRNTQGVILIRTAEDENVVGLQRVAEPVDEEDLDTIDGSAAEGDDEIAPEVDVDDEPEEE

`CCCCCN(C)Cc1cc(C(=O)O)ccc1-n1ccc2c([nH]c3c(NC)cc(F)cc32)c1=O` [Compound 6, 4-(6-fluoro-8-(methylamino)-1-oxo-1,9-dihydro-2H-pyrido[3,4-b]indol-2-yl)-3-((methyl(pentyl)amino)methyl)benzoic acid]: inhibition on DNA gyrase from E. coli was half-maximal at 18 nM (IC50). Besides, the MIC (commonly the smallest concentration in the dilution series that meets the test's criterion for growth inhibition) was found to be 0.75 µg/mL (≈ 1.61 µM) in assay [1] (read-out: MIC); 0.5 µg/mL (≈ 1.08 µM) in [2] (Enterococcus faecium ATCC 51559 (VRE resistant), read-out: MIC); 0.5 µg/mL (≈ 1.08 µM) in [3] (Bacillus subtilis MTCC 441, read-out: MIC); 0.75 µg/mL (≈ 1.61 µM) in assay [4] (Staphylococcus aureus ATCC 29213, read-out: MIC); 0.5 µg/mL (≈ 1.08 µM) in assay [5] (Enterococcus faecium ATCC 35667, read-out: MIC); 0.75 µg/mL (≈ 1.61 µM) in assay [6] (Staphylococcus aureus ATCC BAA-1556 (MERSA resistant), read-out: MIC). For the same compound, the MIC in assay [7] (setting [11]) turned out to be 0.5 µg/mL; in assay [7] (MTCC443, Escherichia coli MTCC 443, read-out: MIC) it was 8 µg/mL (≈ 17.2 µM); in assay [8] (Klebsiella pneumonia MTCC 618, read-out: MIC) it was 1 µg/mL (≈ 2.15 µM); in assay [9] (Pseudomonas aeruginosa MTCC 741, read-out: MIC), 0.75 µg/mL (≈ 1.61 µM); in assay [10], 8 µg/mL (≈ 17.2 µM).
For the compound `CN[C@H](CC(C)C)C(=O)N[C@H]1C(=O)N[C@@H](CC(N)=O)C(=O)N[C@H]2C(=O)N[C@H]3C(=O)N[C@H](C(=O)N[C@H](C(=O)O)c4cc(O)cc(O)c4-c4cc3ccc4O)[C@H](O)c3ccc(c(Cl)c3)Oc3cc2cc(c3O[C@@H]2O[C@H](CO)[C@@H](O)[C@H](O)[C@H]2O[C@H]2C[C@](C)(N)[C@H](O)[C@H](C)O2)Oc2ccc(cc2Cl)[C@H]1O` [Vancomycin, reference compound], the MIC was 1 µg/mL (≈ 0.69 µM) in assay [1]; over 128 µg/mL in assay [2] (Enterococcus faecium); 0.5 µg/mL (≈ 0.345 µM) in assay [3] (Bacillus subtilis); 1 µg/mL (≈ 0.69 µM) in [4] (Staphylococcus aureus); 0.5 µg/mL (≈ 0.345 µM) in assay [5] (Enterococcus faecium); 1 µg/mL (≈ 0.69 µM) in [6] (Staphylococcus aureus). In addition, the MIC is over 128 µg/mL in [7] (setting [11]); over 128 µg/mL in assay [7] (Escherichia coli, MTCC443); over 128 µg/mL in assay [8]; over 128 µg/mL in assay [9] (Pseudomonas aeruginosa).

(Values after US11773092B1, “Pyrido[3,4-b]indol-1-one compounds as antibacterial agents” (KING FAISAL UNIVERSITY, priority 2023, dated 2023).)
